Experimental findings from patent publication US12195490B2, “STRAD-binding agents and uses thereof” (The Regents of the University of California, priority 2020, dated 2025) are described below.

The assay relates to ACHN cell line. The assay is described as follows: drug screen of the SelleckChem kinase inhibitor library with and without 5 uM SU-329, Cell-Titer Glo after 5 days. It is filed as cell-based. The following applies: kinase inhibitor at 200 nM with and without 5 uM SU329; ACHN cell line; 5 days; Cell-Titer Glo.

As for `O=C(c1ccc(/C=C/c2n[nH]c3ccccc23)cc1)N1CCNCC1` [KW-2449], the log2fc is −0.0564.

Turning to `COc1cc2nccc(Oc3ccc(NC(=O)Nc4ccc(F)cc4F)c(F)c3)c2cc1OC` [Ki8751], the log2fc amounted to 0.1011.

As to `COc1ccccc1-c1cc(Nc2cccc(CS(N)(=O)=O)c2)ncn1` [LDC000067], the log2fc is reported as −0.05049.

As to `O=c1cc(N2CCOCC2)oc2c(-c3ccccc3)cccc12` [LY294002], the log2fc was 0.5337.

For the molecule `O=C1NC(=O)C(c2cnc3ccccn23)=C1c1cn2c3c(cc(F)cc13)CN(C(=O)N1CCCCC1)CC2` [LY2090314], the log2fc was 1.91.

For `Cc1cnc(NC(=O)Nc2cc(Br)c(C)cc2OC[C@@H]2CNCCO2)cn1` [LY2603618], the log2fc is on record as −0.1739.

Consider `CS(=O)(=O)CCNCc1ccc(-c2ccc3ncnc(Nc4ccc(OCc5cccc(F)c5)c(Cl)c4)c3c2)o1` [Lapatinib (GW-572016) Ditosylate, lapatinib, reference compound], for which the log2fc stood at 0.212.

Take `CS(=O)(=O)CCNCc1ccc(-c2ccc3ncnc(Nc4ccc(OCc5cccc(F)c5)c(Cl)c4)c3c2)o1` [Lapatinib]: the log2fc is 0.9499.

For the molecule `COc1cc2nccc(Oc3ccc(NC(=O)NC4CC4)c(Cl)c3)c2cc1C(N)=O` [Lenvatinib (E7080)], the log2fc is −0.314.

Turning to `Cc1ccc(F)c(NC(=O)Nc2ccc(-c3cccc4[nH]nc(N)c34)cc2)c1` [Linifanib (ABT-869)], the log2fc was −0.2483.

Take `C[C@]1(O)C[C@@H](c2nc(-c3ccc4ccc(-c5ccccc5)nc4c3)c3c(N)nccn32)C1` [Linsitinib (OSI-906)]: the log2fc turned out to be 0.08978.

On to `Cc1c(F)cc(C(=O)NC2CC2)cc1-c1ccc(C(=O)NCC(C)(C)C)cn1` [Losmapimod (GW856553X)], for which the log2fc is −0.5236.

In turn, `COCCNCc1ccc(-c2cc3nccc(Oc4ccc(NC(=S)NC(=O)Cc5ccc(F)cc5)cc4F)c3s2)nc1` [MGCD-265] registered a log2fc of 0.4311.

As for `Cl.Cl.NC1(c2ccc(-c3nc4ccn5c(=O)[nH]nc5c4cc3-c3ccccc3)cc2)CCC1` [MK-2206 2HCl], the log2fc is listed as −0.1575.

In the case of `CN(C[C@@H]1COCCO1)S(=O)(=O)Nc1ccc2ccc3ncc(-c4cnn(C)c4)cc3c(=O)c2c1` [MK-2461], the log2fc is reported as 0.09192.

`O=C(O)[C@]1(Cc2cccc(Nc3nccs3)n2)CC[C@@H](Oc2cccc(Cl)c2F)CC1` [MK-5108 (VX-689)]: the log2fc is reported as −0.2429.

With `O=C(c1cccc(Cl)c1F)N1CCN(Cc2cccc(Nc3nccs3)n2)CC1` [MK-8745], the log2fc is recorded as −0.3779.

In turn, `C[C@@H](NC(=O)c1ncnc(N)c1Cl)c1ncc(C(=O)Nc2cc(C(F)(F)F)c(Cl)cn2)s1` [MLN2480] gave a log2fc of 0.5916.

The molecule `O=C(O)c1ccc(Nc2ncc3c(n2)-c2ccc(Cl)cc2C(c2c(F)cccc2F)=NC3)cc1` [MLN8054] came in with a log2fc of 0.07059.

For `Cc1ccc(NC(=O)c2ccc(CN3CCN(C)CC3)cc2)cc1Nc1nc(-c2cccnc2)cs1` [Masitinib (AB1010)], the log2fc is 0.1874.

`CNC(=O)c1nn(C)c2c1C(C)(C)Cc1cnc(Nc3ccc(N4CCN(C)CC4)cc3)nc1-2` [Milciclib (PHA-848125)] showed a log2fc of 0.9986.

For `N#CCNC(=O)c1ccc(-c2ccnc(Nc3ccc(N4CCOCC4)cc3)n2)cc1` [Momelotinib (CYT387)], the log2fc is listed as −1.441.

Turning to `CC1(C)CNc2cc(NC(=O)c3cccnc3NCc3ccncc3)ccc21.O=P(O)(O)O.O=P(O)(O)O` [Motesanib Diphosphate (AMG-706)], the log2fc is given as −0.1118.

`FC(F)(F)c1ccc(/C=C/c2nc(COc3ccc(CCCCn4ccnn4)cc3)co2)cc1` [Mubritinib (TAK 165)] had a log2fc of 0.225.

For `Nc1nc(N)c(N=O)c(OCC2CCCCC2)n1` [NU6027], the log2fc was −0.2463.

As to `Nc1ncnc2c1c(-c1cccc(OCc3ccccc3)c1)cn2C1CC(CN2CCC2)C1` (centres unmarked) [NVP-AEW541], the log2fc is given as 0.2179.

In the case of `Cc1ccc(C(=O)Nc2cccc(C(F)(F)F)c2)cc1Nc1nc(-c2cccnc2)nc2c1cnn2C` [NVP-BHG712], the log2fc came out at 0.02396.

Consider `Fc1cc(-c2cccc3ncc(-c4cnn(C5CCNCC5)c4)nc23)cc(F)c1CN1CCOCC1` [NVP-BSK805 2HCl], for which the log2fc was −0.09499.

On to `Cn1cc(-c2ccc3ncc(Cc4ccc5ncccc5c4)n3n2)cn1` [NVP-BVU972], for which the log2fc was 0.5846.

In the case of `Cc1cn(-c2cc(NC(=O)c3ccc(C)c(Nc4nccc(-c5cccnc5)n4)c3)cc(C(F)(F)F)c2)cn1` [Nilotinib (AMN-107)], the log2fc is 0.331.

In turn, `COC(=O)c1ccc2c(c1)NC(=O)/C2=C(\Nc1ccc(N(C)C(=O)CN2CCN(C)CC2)cc1)c1ccccc1` [Nintedanib (BIBF 1120)] came in with a log2fc of 0.7859.

Regarding `COc1cccc2cc(-c3nc([C@H]4CC[C@H](C(=O)O)CC4)n4ncnc(N)c34)[nH]c12` [OSI-027], the log2fc is recorded as −1.494.

For the molecule `C#Cc1cccc(Nc2ncnc3cc(OCCOC)c(OCCO)cc23)c1.Cl` [OSI-420, desmethyl erlotinib, reference compound], the log2fc is −0.04846.

As to `O=C(Nc1ccc(OC(F)(F)F)cc1)c1sccc1NCc1ccnc2ccccc12` [OSI-930], the log2fc was −0.2273.

`NCC(=O)Nc1ccc(-n2nc(C(F)(F)F)cc2-c2ccc3c(ccc4ccccc43)c2)cc1` [OSU-03012 (AR-12)] displayed a log2fc of 0.7911.

The molecule `COc1ncc(-c2ccc3nccc(-c4ccnnc4)c3c2)cc1NS(=O)(=O)c1ccc(F)cc1F` [Omipalisib (GSK2126458, GSK458)] registered a log2fc of 0.5342.

With `Cc1[nH]c(/C=C2\C(=O)Nc3ccccc32)c(C)c1CCC(=O)O` [Orantinib (TSU-68, SU6668)], the log2fc is on record as −0.2487.

`C=CC(=O)Nc1cc(Nc2nccc(-c3cn(C)c4ccccc34)n2)c(OC)cc1N(C)CCN(C)C` [Osimertinib (AZD9291)]: the log2fc is −0.01286.

Molecule `COc1cccc(-c2cc(=O)c3ccccc3o2)c1N` [PD98059, reference compound] had a log2fc of 0.3369.

With `C=CC(=O)Nc1ccc2ncnc(Nc3cccc(Br)c3)c2c1` [PD168393], the log2fc turned out to be 0.5991.

Molecule `CCN(CC)CCCCNc1ncc2cc(-c3cc(OC)cc(OC)c3)c(NC(=O)NC(C)(C)C)nc2n1` [PD173074] gave a log2fc of 0.1032.

Turning to `CSc1cccc(Nc2ncc3cc(-c4c(Cl)cccc4Cl)c(=O)n(C)c3n2)c1` [PD173955], the log2fc is reported as −0.1932.

As for `O=C(NOCC1CC1)c1ccc(F)c(F)c1Nc1ccc(I)cc1Cl` [PD184352 (CI-1040), PD184352, reference compound], the log2fc was 0.3257.

As for `O=C(NOCC(O)CO)c1cc(Br)c(F)c(F)c1Nc1ccc(I)cc1F` (centres unmarked) [PD318088], the log2fc is 0.4184.

Turning to `O=C(NOC[C@H](O)CO)c1ccc(F)c(F)c1Nc1ccc(I)cc1F` [PD0325901], the log2fc is given as 0.3925.

`Cc1cc(CS(=O)(=O)c2ccccc2)cc(OCc2ccc(CN3CCC[C@@H]3CO)cc2)c1` [PF-543] yielded a log2fc of 0.8598.

For `CN(c1ncccc1CNc1nc(Nc2ccc3c(c2)CC(=O)N3)ncc1C(F)(F)F)S(C)(=O)=O` [PF-00562271], the log2fc came out at 0.8274.

Regarding `CN(c1ncccc1CNc1nc(Nc2ccc3c(c2)CC(=O)N3)ncc1C(F)(F)F)S(C)(=O)=O` [PF-562271], the log2fc is listed as 0.8258.

`CS(=O)(=O)c1cccc(CNc2nc(Nc3ccc4c(c3)CCC(=O)N4)ncc2C(F)(F)F)c1` [PF-573228] registered a log2fc of 0.4325.

Turning to `Cc1nc(Nc2n[nH]c3c2CN(C(=O)N[C@H](CN(C)C)c2ccccc2)C3(C)C)c2sccc2n1` [PF-3758309], the log2fc stood at 0.8283.

Take `OCCn1cc(-c2cnc3nnn(Cc4ccc5ncccc5c4)c3n2)cn1` [PF-04217903]: the log2fc is 0.2177.

On to `COc1ccc(-c2cc3c(C)nc(N)nc3n([C@H]3CC[C@H](OCCO)CC3)c2=O)cn1` [PF-04691502], for which the log2fc is recorded as −0.5101.

Consider `CCc1cncnc1N1CCN(Cc2nc3ccc(C(F)(F)F)cc3[nH]2)CC1` [PF-4708671], for which the log2fc is 0.5187.

Consider `O=C(/C=C/c1ccc2ccccc2n1)c1ccncc1` [PFK15], for which the log2fc is reported as −0.9312.

For `CNC(=O)c1ccc(C)c(-n2c(C)cc(OCc3ccc(F)cc3F)c(Br)c2=O)c1` [PH-797804], the log2fc is given as −0.5678.

In the case of `Cc1[nH]c(/C=C2\C(=O)Nc3ccc(S(=O)(=O)Cc4c(Cl)cccc4Cl)cc32)c(C)c1C(=O)N1CCC[C@@H]1CN1CCCC1` [PHA-665752], the log2fc is on record as 0.1781.

Turning to `CCc1cccc(CC)c1NC(=O)N1Cc2[nH]nc(NC(=O)c3ccc(N4CCN(C)CC4)cc3)c2C1` [PHA-680632], the log2fc was −0.4048.

In the case of `O=C1NCCc2[nH]c(-c3ccncc3)cc21` [PHA-767491], the log2fc was −0.9629.

For the molecule `CC(C)CC(=O)Nc1n[nH]c2c1CN(C(=O)C1CCN(C)CC1)C2(C)C` [PHA-793887], the log2fc was −0.1187.

Turning to `CCCCCCCCCCCCc1ccc(S(=O)(=O)Nc2nncs2)cc1` [PHT-427], the log2fc is −0.02861.

In the case of `Oc1cccc(-c2nc(N3CCOCC3)c3oc4ncccc4c3n2)c1` [PI-103], the log2fc is on record as −1.021.

`CC(=O)Nc1nc(C)c(-c2ccc(Cl)c(S(=O)(=O)NCCO)c2)s1` [PIK-93] gave a log2fc of 0.3162.

With `Cc1ccccc1-n1c(Cn2ncc3c(N)ncnc32)nc2cccc(C)c2c1=O` [PIK-293], the log2fc stood at 0.1249.

As to `CCCS(=O)(=O)Nc1ccc(F)c(C(=O)c2c[nH]c3ncc(Cl)cc23)c1F` [PLX-4720], the log2fc was −0.05066.

For `Cc1ccc(-c2nn(C(C)(C)C)c3ncnc(N)c23)cc1` [PP1], the log2fc came to 0.2956.

On to `CC(C)(C)n1nc(-c2ccc(Cl)cc2)c2c(N)ncnc21` [PP2], for which the log2fc is given as −0.01088.

In the case of `Nc1ncnc2c1c(-c1cnc3[nH]ccc3c1)nn2C1CCCC1` [PP121], the log2fc is −0.5206.

For `COc1ccc(COc2cc3oc(=O)c4cc(C(C)O)ccc4c3cc2OC)cc1` (centres unmarked) [Palomid 529 (P529)], the log2fc turned out to be 0.3192.
